The values that follow are results of earlier work, collected in US20090239791A1, “PHARMACEUTICAL COMPOSITION CONTAINING LIPOPHILIC SUBSTANCE WHICH INHIBITS IL-2 PRODUCTION” (Astellas Pharma Inc., priority 2007, published 2009).

Each structure is given as a SMILES string.

This series concerns human mixed lymphocyte reaction. To be noted: Transplant Proceedings, No 5, Suppl 6, 36-39, 1987.

On to `C=CC[C@@H]1/C=C(\C)C[C@H](C)C[C@H](OC)C2O[C@@](O)(C(=O)C(=O)N3CCCC[C@H]3C(=O)O[C@H](/C(C)=C/[C@@H]3CC[C@@H](O)[C@H](OC)C3)[C@H](C)[C@@H](O)CC1=O)[C@H](C)C[C@@H]2OC` (relative stereo) [Tacrolimus, [3S-[3R*[E(1S*,3S*,4S*)],4S*,5R*,8S*,9E,12R*,14R*,15S*,16R*,18S*,19S*,26aR*]]-5,6,8,11,12,13,14,15,16,17,18,19,24,25,26,26a-hexadecahydro-5,19-dihydroxy-3-[2-(4-hydroxy-3-methoxycyclohexyl)-1-methylethenyl]-14,16-dimethoxy-4,10,12,18-tetramethyl-8-(2-propenyl)-15,19-epoxy-3H-pyrido[2,1-c][1,4]oxaazacyclotricosine-1,7,20,21(4H,23H)-tetrone, monohydrate], for which the “IC50 (a 50% inhibitory drug concentration in a human mixed lymphocyte reaction)” value is 0.18 ng/mL.
